Experimental data reported in PubChem BioAssay (NCI).
“And” between values parts separate entries of the source, which are not always exact repeats. Equal entries are not always repeated.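 Following 48 hours of exposure in 96-well plates, responses at five concentrations were used to interpolate endpoints linearly. At the GI50, growth is halved. TGI denotes the concentration required for complete inhibition of growth.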

Assays:
Assay in all cases: inhibition of tumour cell growth, NCI panel, 48 h; in the data active means GI50 below about 0.43 µM; inactive means the rest
OVCAR-5 ovarian = system: OVCAR-5 ovarian
NCI-H522 lung = system: NCI-H522 lung
DMS 114 small cell lung = system: DMS 114 small cell lung
COLO 205 colon = system: COLO 205 colon
A498 renal = system: A498 renal
SK-MEL-2 melanoma = system: SK-MEL-2 melanoma
U251 CNS = system: U251 CNS
A549 NSCLC = system: A549 NSCLC
RPMI-8226 leukemia = system: RPMI-8226 leukemia
NCI-H226 lung = system: NCI-H226 lung
HT29 colon = system: HT29 colon
HL-60(TB) leukemia = system: HL-60(TB) leukemia
LOX IMVI melanoma = system: LOX IMVI melanoma
KM12 colon = system: KM12 colon
SK-OV-3 ovarian = system: SK-OV-3 ovarian
CAKI-1 renal = system: CAKI-1 renal
SN12C renal = system: SN12C renal
HCC-2998 colon = system: HCC-2998 colon
ACHN renal = system: ACHN renal
KM20L2 colon = system: KM20L2 colon
M14 melanoma = system: M14 melanoma
HOP-18 NSCLC = system: HOP-18 NSCLC
SNB-75 CNS = system: SNB-75 CNS
OVCAR-4 ovarian = system: OVCAR-4 ovarian
SF-268 CNS = system: SF-268 CNS
OVCAR-3 ovarian = system: OVCAR-3 ovarian
IGROV1 ovarian = system: IGROV1 ovarian
MALME-3M melanoma = system: MALME-3M melanoma
UACC-257 melanoma = system: UACC-257 melanoma
HOP-62 NSCLC = system: HOP-62 NSCLC
SK-MEL-5 melanoma = system: SK-MEL-5 melanoma
UACC-62 melanoma = system: UACC-62 melanoma
HOP-92 NSCLC = system: HOP-92 NSCLC
MOLT-4 leukemia = system: MOLT-4 leukemia
LXFL 529 NSCLC = system: LXFL 529 NSCLC
K-562 leukemia = system: K-562 leukemia
SNB-78 CNS = system: SNB-78 CNS
NCI-H460 lung = system: NCI-H460 lung
RXF-631 renal = system: RXF-631 renal
SF-539 CNS = system: SF-539 CNS
RXF 393 renal = system: RXF 393 renal
OVCAR-8 ovarian = system: OVCAR-8 ovarian
DLD-1 colon = system: DLD-1 colon
XF 498 CNS = system: XF 498 CNS
786-0 renal = system: 786-0 renal
SNB-19 CNS = system: SNB-19 CNS
HCT-15 colon = system: HCT-15 colon
CCRF-CEM leukemia = system: CCRF-CEM leukemia
DMS 273 small cell lung = system: DMS 273 small cell lung
EKVX NSCLC = system: EKVX NSCLC
M19-MEL melanoma = system: M19-MEL melanoma
SK-MEL-28 melanoma = system: SK-MEL-28 melanoma
TK-10 renal = system: TK-10 renal
UO-31 renal = system: UO-31 renal
SW-620 colon = system: SW-620 colon
HCT-116 colon = system: HCT-116 colon
NCI-H23 lung = system: NCI-H23 lung
SF-295 CNS = system: SF-295 CNS
SR leukemia = system: SR leukemia

CCOP(=O)(OCC)C(C(=O)OC)C(=O)C(=O)Nc1c(C)cc(Br)cc1C (centres undefined)
> 100 µM: TGI (OVCAR-5 ovarian) | TGI (NCI-H522 lung) | TGI (DMS 114 small cell lung) | TGI (COLO 205 colon) | TGI (A498 renal) | TGI (SK-MEL-2 melanoma) | TGI (U251 CNS) | TGI (A549 NSCLC) | TGI (RPMI-8226 leukemia) | TGI (NCI-H226 lung) | TGI (HT29 colon) | TGI (HL-60(TB) leukemia) | TGI (LOX IMVI melanoma) | TGI (KM12 colon) | TGI (SK-OV-3 ovarian) | TGI (CAKI-1 renal) | TGI (SN12C renal) | TGI (HCC-2998 colon) | TGI (ACHN renal) | TGI (KM20L2 colon) | TGI (M14 melanoma) | TGI (HOP-18 NSCLC) | TGI (SNB-75 CNS) | TGI (OVCAR-4 ovarian) | TGI (SF-268 CNS) | TGI (OVCAR-3 ovarian) | TGI (IGROV1 ovarian) | TGI (MALME-3M melanoma) | TGI (UACC-257 melanoma) | TGI (HOP-62 NSCLC) | TGI (SK-MEL-5 melanoma) | TGI (UACC-62 melanoma) | TGI (HOP-92 NSCLC) | TGI (MOLT-4 leukemia) | TGI (LXFL 529 NSCLC) | TGI (K-562 leukemia) | TGI (SNB-78 CNS) | TGI (NCI-H460 lung) | TGI (RXF-631 renal) | TGI (SF-539 CNS) | TGI (RXF 393 renal) | TGI (OVCAR-8 ovarian) | TGI (DLD-1 colon) | TGI (XF 498 CNS) | TGI (786-0 renal) | TGI (SNB-19 CNS) | TGI (HCT-15 colon) | TGI (CCRF-CEM leukemia) | TGI (DMS 273 small cell lung) | TGI (EKVX NSCLC) | TGI (M19-MEL melanoma) | TGI (SK-MEL-28 melanoma) | TGI (TK-10 renal) | TGI (UO-31 renal) | TGI (SW-620 colon) | TGI (HCT-116 colon) | TGI (NCI-H23 lung)

CC1=C[P+](Cc2ccccc2)(c2ccccc2)CC1 (centres undefined)
> 100 µM: TGI (OVCAR-5 ovarian) | TGI (NCI-H522 lung) | TGI (DMS 114 small cell lung) | TGI (COLO 205 colon) | TGI (A498 renal) | TGI (SK-MEL-2 melanoma) | TGI (U251 CNS) | TGI (A549 NSCLC) | TGI (RPMI-8226 leukemia) | TGI (NCI-H226 lung) | TGI (HT29 colon) | TGI (HL-60(TB) leukemia) | TGI (LOX IMVI melanoma) | TGI (KM12 colon) | TGI (SK-OV-3 ovarian) | TGI (SN12C renal) | TGI (HCC-2998 colon) | TGI (ACHN renal) | TGI (KM20L2 colon) | TGI (M14 melanoma) | TGI (HOP-18 NSCLC) | TGI (SNB-75 CNS) | TGI (OVCAR-4 ovarian) | TGI (SF-295 CNS) | TGI (OVCAR-3 ovarian) | TGI (IGROV1 ovarian) | TGI (MALME-3M melanoma) | TGI (HOP-62 NSCLC) | TGI (UACC-62 melanoma) | TGI (MOLT-4 leukemia) | TGI (LXFL 529 NSCLC) | TGI (K-562 leukemia) | TGI (SNB-78 CNS) | TGI (NCI-H460 lung) | TGI (SR leukemia) | TGI (SF-539 CNS) | TGI (RXF 393 renal) | TGI (OVCAR-8 ovarian) | TGI (DLD-1 colon) | TGI (786-0 renal) | TGI (SNB-19 CNS) | TGI (HCT-15 colon) | TGI (CCRF-CEM leukemia) | TGI (DMS 273 small cell lung) | TGI (EKVX NSCLC) | TGI (M19-MEL melanoma) | TGI (SK-MEL-28 melanoma) | TGI (TK-10 renal) | TGI (UO-31 renal) | TGI (SW-620 colon) | TGI (HCT-116 colon) | TGI (NCI-H23 lung)
inactive: GI50 (U251 CNS) 23.1 µM and 58.1 µM and 9.71 µM | GI50 (HCC-2998 colon) 97.7 µM and > 100 µM and 39.3 µM | GI50 (MALME-3M melanoma) 19.9 µM and 76.5 µM and 31.2 µM | GI50 (XF 498 CNS) 25 µM
> 100 µM and 56.7 µM and 84.1 µM: TGI (SK-MEL-5 melanoma)
78.2 µM: TGI (XF 498 CNS)
> 100 µM and 78 µM: TGI (UACC-257 melanoma)

COc1c(C)cc2c(c1O)C1NC(C2)[C@H](O)N2C3COC(=O)[C@@]4(CS[C@@H](c5c(OC(C)=O)c(C)c6c(c53)OCO6)C12)NCCC1=C4NC2C=CC=CC12 (some centres undefined)
0.0161 µM: TGI (RPMI-8226 leukemia)
< 0.01 µM: TGI (DMS 114 small cell lung) | TGI (A498 renal) | TGI (SK-MEL-2 melanoma) | TGI (U251 CNS) | TGI (A549 NSCLC) | TGI (NCI-H226 lung) | TGI (HL-60(TB) leukemia) | TGI (LOX IMVI melanoma) | TGI (HCC-2998 colon) | TGI (KM20L2 colon) | TGI (M14 melanoma) | TGI (SNB-75 CNS) | TGI (SF-295 CNS) | TGI (OVCAR-3 ovarian) | TGI (IGROV1 ovarian) | TGI (MALME-3M melanoma) | TGI (HOP-62 NSCLC) | TGI (SK-MEL-5 melanoma) | TGI (UACC-62 melanoma) | TGI (MOLT-4 leukemia) | TGI (RXF 393 renal) | TGI (OVCAR-8 ovarian) | TGI (786-0 renal) | TGI (CCRF-CEM leukemia) | TGI (DMS 273 small cell lung) | TGI (M19-MEL melanoma) | TGI (SK-MEL-28 melanoma) | TGI (SW-620 colon) | TGI (NCI-H23 lung)
0.0306 µM: TGI (EKVX NSCLC)
0.113 µM: TGI (HCT-15 colon)
0.0498 µM: TGI (DLD-1 colon)
0.167 µM: TGI (RXF-631 renal)
0.0148 µM: TGI (ACHN renal)
1.31 µM: TGI (TK-10 renal)
0.0202 µM: TGI (K-562 leukemia)
0.0304 µM: TGI (SF-268 CNS)
0.107 µM: TGI (HT29 colon)
0.0365 µM: TGI (SN12C renal)
0.0342 µM: TGI (UO-31 renal)
0.0117 µM: TGI (LXFL 529 NSCLC)

COc1ccc2[nH]cc(CCNC(=O)[C@](O)(Cc3cn(C)c4ccccc34)[C@@]3(O)OCC(O)C3O)c2c1 (some centres undefined)
> 100 µM: TGI (OVCAR-5 ovarian) | TGI (NCI-H522 lung) | TGI (DMS 114 small cell lung) | TGI (COLO 205 colon) | TGI (SK-MEL-2 melanoma) | TGI (U251 CNS) | TGI (A549 NSCLC) | TGI (RPMI-8226 leukemia) | TGI (NCI-H226 lung) | TGI (HT29 colon) | TGI (HL-60(TB) leukemia) | TGI (LOX IMVI melanoma) | TGI (KM12 colon) | TGI (SK-OV-3 ovarian) | TGI (CAKI-1 renal) | TGI (SN12C renal) | TGI (HCC-2998 colon) | TGI (ACHN renal) | TGI (KM20L2 colon) | TGI (M14 melanoma) | TGI (HOP-18 NSCLC) | TGI (SNB-75 CNS) | TGI (OVCAR-4 ovarian) | TGI (SF-295 CNS) | TGI (SF-268 CNS) | TGI (OVCAR-3 ovarian) | TGI (IGROV1 ovarian) | TGI (MALME-3M melanoma) | TGI (UACC-257 melanoma) | TGI (HOP-62 NSCLC) | TGI (SK-MEL-5 melanoma) | TGI (UACC-62 melanoma) | TGI (HOP-92 NSCLC) | TGI (MOLT-4 leukemia) | TGI (LXFL 529 NSCLC) | TGI (K-562 leukemia) | TGI (NCI-H460 lung) | TGI (RXF-631 renal) | TGI (SR leukemia) | TGI (SF-539 CNS) | TGI (RXF 393 renal) | TGI (OVCAR-8 ovarian) | TGI (DLD-1 colon) | TGI (XF 498 CNS) | TGI (786-0 renal) | TGI (SNB-19 CNS) | TGI (HCT-15 colon) | TGI (CCRF-CEM leukemia) | TGI (DMS 273 small cell lung) | TGI (EKVX NSCLC) | TGI (M19-MEL melanoma) | TGI (SK-MEL-28 melanoma) | TGI (TK-10 renal) | TGI (SW-620 colon) | TGI (HCT-116 colon) | TGI (NCI-H23 lung)
